# Experimental data reported in US20260297109A1, “COMPOUNDS AS SUMO ACTIVATING ENZYME INHIBITORS” (WIGEN BIOMEDICINE TECHNOLOGY (SHANGHAI) CO., LTD., priority 2022, published 2026).
# Biological target: T1, SAE (Homo sapiens, UniProt Q9UBT2)
# T1 construct: endogenous in cells; host or cells: HCT116
# T1 sequence (Q9UBT2 1-640): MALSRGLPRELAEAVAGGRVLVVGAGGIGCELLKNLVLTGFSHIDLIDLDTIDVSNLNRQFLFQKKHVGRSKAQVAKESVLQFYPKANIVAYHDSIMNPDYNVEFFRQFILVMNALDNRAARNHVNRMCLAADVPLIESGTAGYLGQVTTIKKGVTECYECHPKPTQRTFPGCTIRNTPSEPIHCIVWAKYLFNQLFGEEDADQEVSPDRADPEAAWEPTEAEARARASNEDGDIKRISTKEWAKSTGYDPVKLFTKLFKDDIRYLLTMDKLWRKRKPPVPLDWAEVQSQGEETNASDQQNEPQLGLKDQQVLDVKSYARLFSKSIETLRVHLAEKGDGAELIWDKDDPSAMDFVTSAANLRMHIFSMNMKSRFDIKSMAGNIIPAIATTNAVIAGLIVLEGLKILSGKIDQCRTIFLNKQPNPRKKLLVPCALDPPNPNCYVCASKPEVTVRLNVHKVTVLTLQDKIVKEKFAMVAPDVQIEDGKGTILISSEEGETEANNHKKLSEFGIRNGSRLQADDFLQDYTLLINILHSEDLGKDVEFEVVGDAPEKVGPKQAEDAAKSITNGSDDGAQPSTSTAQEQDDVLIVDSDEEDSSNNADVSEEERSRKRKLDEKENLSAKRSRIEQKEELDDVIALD
# T1 sequence (Q9UBE0 1-346): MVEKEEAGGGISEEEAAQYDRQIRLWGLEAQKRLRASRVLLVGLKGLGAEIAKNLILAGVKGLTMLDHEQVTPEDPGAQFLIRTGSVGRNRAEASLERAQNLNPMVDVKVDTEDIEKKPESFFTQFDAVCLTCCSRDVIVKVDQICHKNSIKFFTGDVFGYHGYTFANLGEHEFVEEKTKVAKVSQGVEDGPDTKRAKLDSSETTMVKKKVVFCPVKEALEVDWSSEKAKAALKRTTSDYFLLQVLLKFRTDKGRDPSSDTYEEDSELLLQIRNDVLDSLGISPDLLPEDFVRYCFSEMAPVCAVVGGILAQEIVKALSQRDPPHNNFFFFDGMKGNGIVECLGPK
# Test: SUMO IF: in vitro inhibitory activity assay against SAE in HCT116 cells (SUMO-2/3 immunofluorescence)
# Assay type: cell-based
# Settings: class symbols, 6 h at 37° C.
# Outline: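 HCT116 cells were treated with compound for 6 h at 37 °C, then PFA-fixed, Triton-permeabilised and BSA-blocked. They were stained overnight at 4 °C with anti-SUMO-2/3 (18H8) rabbit mAb (1:400), then with FITC anti-rabbit IgG (1:300). Fluorescence versus DMSO gave inhibition rate and IC50.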
row,Structure (SMILES),IC50 [nM]
1,Cc1cc2c(cc1Cl)[C@@]1(CCc3sc(C(=O)c4cncnc4N[C@H]4C[C@H](O)[C@@H](COS(N)(=O)=O)[C@@H]4F)cc31)NCC2 [Compound 694],≤ 50
2,N#Cc1cc2c(cc1Cl)[C@@]1(CCc3sc(C(=O)c4cncnc4N[C@H]4C[C@H](O)[C@@H](COS(N)(=O)=O)[C@@H]4F)cc31)NCC2 [Compound 695],≤ 50
3,COc1cc2c(cc1Cl)[C@@]1(CCc3sc(C(=O)c4cncnc4N[C@H]4C[C@H](O)[C@@H](COS(N)(=O)=O)[C@@H]4F)cc31)NCC2 [Compound 696],50 to 200
4,NS(=O)(=O)OC[C@H]1[C@H](F)[C@@H](Nc2ncncc2C(=O)c2cc3c(s2)CC[C@]32NCCc3cc(F)c(Cl)c(F)c32)C[C@@H]1O [Compound 697],≤ 50
5,NS(=O)(=O)OC[C@H]1[C@H](F)[C@@H](Nc2ncncc2C(=O)c2cc3c(s2)CC[C@]32NCCc3cc(Cl)c(F)cc32)C[C@@H]1O [Compound 698],≤ 50
6,NS(=O)(=O)OC[C@H]1[C@H](F)[C@@H](Nc2ncncc2C(=O)c2cc3c(s2)CC[C@]32NCCc3ccncc32)C[C@@H]1O [Compound 699],50 to 200
7,NS(=O)(=O)OC[C@H]1[C@H](F)[C@@H](Nc2ncncc2C(=O)c2cc3c(s2)CC[C@]32NCCc3cc(Cl)ncc32)C[C@@H]1O [Compound 700],50 to 200
8,[2H]C1([2H])Cc2ccc(Cl)cc2[C@@]2(C=Cc3sc(C(=O)c4cncnc4N[C@H]4C[C@H](O)[C@@H](COS(N)(=O)=O)[C@@H]4F)cc32)N1 [Compound 701],≤ 50
9,NS(=O)(=O)OC[C@H]1[C@H](F)[C@@H](Nc2ncncc2C(=O)c2cc3c(s2)CO[C@]32NCCc3ccc(Cl)cc32)C[C@@H]1O [Compound 703],50 to 200
10,NS(=O)(=O)OC[C@H]1[C@H](F)[C@@H](Nc2ncncc2C(=O)c2cc3c(s2)CC[C@]32NCC3(CC3)c3ccc(Cl)cc32)C[C@@H]1O [Compound 704],50 to 200
11,NS(=O)(=O)OC[C@H]1[C@H](F)[C@@H](Nc2ncncc2C(=O)c2cc3c(s2)CC[C@]32NC3(CC3)Cc3ccc(Cl)cc32)C[C@@H]1O [Compound 705],50 to 200
12,NS(=O)(=O)OC[C@H]1[C@H](F)[C@@H](Nc2ncncc2C(=O)c2cc3c(s2)CC[C@@]32OCCc3ccc(Cl)cc32)C[C@@H]1O [Compound 706],> 200
13,NS(=O)(=O)OC[C@H]1[C@H](F)[C@@H](Nc2ncncc2C(=O)c2cc3c(s2)CC[C@]32OCCc3ccc(Cl)cc32)C[C@@H]1O [Compound 707],≤ 50
14,NS(=O)(=O)OC[C@H]1[C@H](F)[C@@H](Nc2ncncc2C(=O)c2cc3c(s2)CCCC32OCCc3ccccc32)C[C@@H]1O (stereo partly drawn) [Compound 708],> 200
15,NS(=O)(=O)OC[C@H]1[C@H](F)[C@@H](Nc2ncncc2C(=O)c2cc3c(s2)CCC[C@@]32OCCc3ccccc32)C[C@@H]1O [Compound 709],> 200
16,NS(=O)(=O)OC[C@H]1[C@H](F)[C@@H](Nc2ncncc2C(=O)c2cc3c(s2)CCC[C@]32OCCc3ccccc32)C[C@@H]1O [Compound 710],50 to 200
17,NS(=O)(=O)OC[C@H]1[C@H](F)[C@@H](Nc2ncncc2C(=O)c2cc3c(s2)CCCC32OCCc3ccc(F)cc32)C[C@@H]1O (stereo partly drawn) [Compound 711],50 to 200
18,NS(=O)(=O)OC[C@H]1[C@H](F)[C@@H](Nc2ncncc2C(=O)c2cc3c(s2)CCC[C@@]32OCCc3ccc(F)cc32)C[C@@H]1O [Compound 712],> 200
19,NS(=O)(=O)OC[C@H]1[C@H](F)[C@@H](Nc2ncncc2C(=O)c2cc3c(s2)CCC[C@]32OCCc3ccc(F)cc32)C[C@@H]1O [Compound 713],≤ 50
20,N#Cc1ccc2c(c1)C1(CCCc3sc(C(=O)c4cncnc4N[C@H]4C[C@H](O)[C@@H](COS(N)(=O)=O)[C@@H]4F)cc31)OCC2 (stereo partly drawn) [Compound 714],50 to 200
21,N#Cc1ccc2c(c1)[C@]1(CCCc3sc(C(=O)c4cncnc4N[C@H]4C[C@H](O)[C@@H](COS(N)(=O)=O)[C@@H]4F)cc31)OCC2 [Compound 715],> 200
22,N#Cc1ccc2c(c1)[C@@]1(CCCc3sc(C(=O)c4cncnc4N[C@H]4C[C@H](O)[C@@H](COS(N)(=O)=O)[C@@H]4F)cc31)OCC2 [Compound 716],≤ 50
23,CN1Cc2sc(C(=O)c3cncnc3N[C@H]3C[C@H](O)[C@@H](COS(N)(=O)=O)[C@@H]3F)cc2C2(C1)OCCc1ccccc12 (stereo partly drawn) [Compound 717],50 to 200

row,Structure (SMILES),IC50 [nM]
1,CN1Cc2sc(C(=O)c3cncnc3N[C@H]3C[C@H](O)[C@@H](COS(N)(=O)=O)[C@@H]3F)cc2[C@@]2(C1)OCCc1ccccc12 [Compound 718],> 200
2,CN1Cc2sc(C(=O)c3cncnc3N[C@H]3C[C@H](O)[C@@H](COS(N)(=O)=O)[C@@H]3F)cc2[C@]2(C1)OCCc1ccccc12 [Compound 719],50 to 200
3,CN1Cc2sc(C(=O)c3cncnc3N[C@H]3C[C@H](O)[C@@H](COS(N)(=O)=O)[C@@H]3F)cc2C2(C1)OCCc1ccc(F)cc12 (stereo partly drawn) [Compound 720],50 to 200
4,CN1Cc2sc(C(=O)c3cncnc3N[C@H]3C[C@H](O)[C@@H](COS(N)(=O)=O)[C@@H]3F)cc2[C@@]2(C1)OCCc1ccc(F)cc12 [Compound 721],> 200
5,CN1Cc2sc(C(=O)c3cncnc3N[C@H]3C[C@H](O)[C@@H](COS(N)(=O)=O)[C@@H]3F)cc2[C@]2(C1)OCCc1ccc(F)cc12 [Compound 722],≤ 50
6,CN1Cc2sc(C(=O)c3cncnc3N[C@H]3C[C@H](O)[C@@H](COS(N)(=O)=O)[C@@H]3F)cc2C2(C1)OCCc1ccc(Cl)cc12 (stereo partly drawn) [Compound 723],≤ 50
7,CN1Cc2sc(C(=O)c3cncnc3N[C@H]3C[C@H](O)[C@@H](COS(N)(=O)=O)[C@@H]3F)cc2[C@@]2(C1)OCCc1ccc(Cl)cc12 [Compound 724],> 200
8,CN1Cc2sc(C(=O)c3cncnc3N[C@H]3C[C@H](O)[C@@H](COS(N)(=O)=O)[C@@H]3F)cc2[C@]2(C1)OCCc1ccc(Cl)cc12 [Compound 725],≤ 50
9,CCN1Cc2sc(C(=O)c3cncnc3N[C@H]3C[C@H](O)[C@@H](COS(N)(=O)=O)[C@@H]3F)cc2C2(C1)OCCc1ccc(F)cc12 (stereo partly drawn) [Compound 726],50 to 200
10,CCN1Cc2sc(C(=O)c3cncnc3N[C@H]3C[C@H](O)[C@@H](COS(N)(=O)=O)[C@@H]3F)cc2[C@@]2(C1)OCCc1ccc(F)cc12 [Compound 727],> 200
11,CCN1Cc2sc(C(=O)c3cncnc3N[C@H]3C[C@H](O)[C@@H](COS(N)(=O)=O)[C@@H]3F)cc2[C@]2(C1)OCCc1ccc(F)cc12 [Compound 728],≤ 50
12,CCN1Cc2sc(C(=O)c3cncnc3N[C@H]3C[C@H](O)[C@@H](COS(N)(=O)=O)[C@@H]3F)cc2C2(C1)OCCc1ccc(Cl)cc12 (stereo partly drawn) [Compound 729],≤ 50
13,CCN1Cc2sc(C(=O)c3cncnc3N[C@H]3C[C@H](O)[C@@H](COS(N)(=O)=O)[C@@H]3F)cc2[C@@]2(C1)OCCc1ccc(Cl)cc12 [Compound 730],> 200
14,CCN1Cc2sc(C(=O)c3cncnc3N[C@H]3C[C@H](O)[C@@H](COS(N)(=O)=O)[C@@H]3F)cc2[C@]2(C1)OCCc1ccc(Cl)cc12 [Compound 731],≤ 50
15,CC(C)N1Cc2sc(C(=O)c3cncnc3N[C@H]3C[C@H](O)[C@@H](COS(N)(=O)=O)[C@@H]3F)cc2C2(C1)OCCc1ccc(F)cc12 (stereo partly drawn) [Compound 732],50 to 200
16,CC(C)N1Cc2sc(C(=O)c3cncnc3N[C@H]3C[C@H](O)[C@@H](COS(N)(=O)=O)[C@@H]3F)cc2[C@@]2(C1)OCCc1ccc(F)cc12 [Compound 733],> 200
17,CC(C)N1Cc2sc(C(=O)c3cncnc3N[C@H]3C[C@H](O)[C@@H](COS(N)(=O)=O)[C@@H]3F)cc2[C@]2(C1)OCCc1ccc(F)cc12 [Compound 734],≤ 50
18,CC(C)N1Cc2sc(C(=O)c3cncnc3N[C@H]3C[C@H](O)[C@@H](COS(N)(=O)=O)[C@@H]3F)cc2C2(C1)OCCc1ccc(Cl)cc12 (stereo partly drawn) [Compound 735],50 to 200
19,CC(C)N1Cc2sc(C(=O)c3cncnc3N[C@H]3C[C@H](O)[C@@H](COS(N)(=O)=O)[C@@H]3F)cc2[C@@]2(C1)OCCc1ccc(Cl)cc12 [Compound 736],> 200
20,CC(C)N1Cc2sc(C(=O)c3cncnc3N[C@H]3C[C@H](O)[C@@H](COS(N)(=O)=O)[C@@H]3F)cc2[C@]2(C1)OCCc1ccc(Cl)cc12 [Compound 737],≤ 50
21,NS(=O)(=O)OC[C@H]1[C@H](F)[C@@H](Nc2ncncc2C(=O)c2cc3c(s2)CN(C2CC2)CC32OCCc3ccc(F)cc32)C[C@@H]1O (stereo partly drawn) [Compound 738],50 to 200
22,NS(=O)(=O)OC[C@H]1[C@H](F)[C@@H](Nc2ncncc2C(=O)c2cc3c(s2)CN(C2CC2)C[C@@]32OCCc3ccc(F)cc32)C[C@@H]1O [Compound 739],> 200
